The source of these data is patent publication US12721905B2, “Combination of anti-HER2 antibody-drug conjugate and PARP1 selective inhibitor” (AstraZeneca UK Limited, priority 2020, dated 2026).

pIC50: −log10 of the molar value.

The test system of one test is BRCA2 (−/−) DLD1 cells. Description: PARP proliferation assay (4 day compound dosing), BRCA2 (-/-) DLD1. The following applies: Homo sapiens, DLD-1, 96 h, read-out: BRCA2 −/− DLD-1 prolif 4 d IC50. It is filed as cell-based.
The next test deals with DLD1 cells. Description: PARP proliferation assay (4 day compound dosing), WT DLD1. It is filed as cell-based. The following applies: Homo sapiens, DLD-1, 96 h, read-out: WT DLD-1 prolif 4 d IC50.
The target in test [1] is T1, Recombinant full length PARP2 protein (Homo sapiens, UniProt Q9UGN5).
T1 construct: Recombinant full length PARP2 protein
Description: PARP fluorescence anisotropy binding assay, PARP2. (In general: In fluorescence polarisation assays a small probe gives low polarisation when free and higher when bound to something large.)

A further test concerns 5637. Description: High-throughput combination screen, 7-day CellTiter-Glo cell viability (Example 6), 5637. It is filed as cell-based. The following applies: AZD5305 as single agent, HER2 mutant cell line 5637. The protocol:
Combination activity was assessed based on a combination of the ΔEmax and Loewe synergy scores.
FIGS. 18A and 19A show matrices of measured cell viability signals. […] Values in the box represent the ratio of cells treated with drug A+B compared to DMSO control at day 7. All values are normalised to cell viability values at day 0. Values between 0 and 100 represent % growth inhibition and values above 100 represent cell death.
FIGS. 18B and 19B show Loewe excess matrices. Values in the box represent excess values calculated by the Loewe additivity model.
FIGS. 18C and 19C show HSA excess matrices. Values in the box represent excess values calculated by the HSA (Highest Single Agent) model.
(In general: ATP-based viability assays read luminescence as a measure of living cells.)

The subject of another test is NCI-N87 xenograft. Description: Antitumor test in vivo, NCI-N87 xenograft (Example 5). Further details: species or system Female Nude mice. The following applies: AZD5305 1 mg/kg PO QD for 28 days.

T1 sequence (Q9UGN5 whole entry): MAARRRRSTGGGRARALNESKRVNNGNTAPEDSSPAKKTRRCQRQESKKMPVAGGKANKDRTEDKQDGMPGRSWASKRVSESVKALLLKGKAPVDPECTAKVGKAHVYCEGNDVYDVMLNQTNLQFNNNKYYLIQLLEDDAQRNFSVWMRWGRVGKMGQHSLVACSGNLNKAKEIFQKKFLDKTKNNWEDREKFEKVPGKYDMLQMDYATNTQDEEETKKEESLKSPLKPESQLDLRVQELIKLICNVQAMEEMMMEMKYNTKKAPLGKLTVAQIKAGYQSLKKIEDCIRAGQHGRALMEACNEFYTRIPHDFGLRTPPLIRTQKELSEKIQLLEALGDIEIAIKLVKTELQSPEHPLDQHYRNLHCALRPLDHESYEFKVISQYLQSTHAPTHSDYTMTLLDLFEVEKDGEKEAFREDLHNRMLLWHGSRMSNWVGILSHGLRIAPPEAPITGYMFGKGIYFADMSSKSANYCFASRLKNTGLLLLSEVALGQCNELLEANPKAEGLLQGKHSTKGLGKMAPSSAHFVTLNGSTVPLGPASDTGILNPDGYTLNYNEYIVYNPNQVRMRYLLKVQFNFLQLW

For `CCc1cc2ncc(CN3CCN(c4ccc(C(=O)NC)nc4)CC3)cc2[nH]c1=O` [Example 4], the pIC50 with BRCA2 (−/−) DLD1 cells is less than 7.77.

Regarding `CCc1cc2ncc(CN3CCN(c4ccc(C(=O)NC)nc4C(F)(F)F)CC3)cc2[nH]c1=O` [Example 30], the pIC50 in the test with BRCA2 (−/−) DLD1 cells is 8.40; in the test with DLD1 cells it was less than 4.52.

`CCc1cc2ncc(CN3CCN(c4ccc(C(=O)NC)nc4C)CC3)cc2[nH]c1=O` [Example 31]: the pIC50 in test [1] is 5.52. Consider `CCc1cc2ncc(CN3CCN(c4ccc(C(=O)NC)nc4)CC3)cc2[nH]c1=O` [Synthesis Example 4, 5-[4-[(7-ethyl-6-oxo-5H-1,5-naphthyridin-3-yl)methyl]piperazin-1-yl]-N-methyl-pyridine-2-carboxamide], for which the single agent activity result in the test on 5637 was “not active”. Also, the “TGI % day 41” value with NCI-N87 xenograft stood at 40%.
